Data published in patent US20240262812A1, “N-SUBSTITUTED PHENYLSULFONAMIDE COMPOUND AND USE THEREOF” (Shanghai Leado Pharmatech Co., Ltd., priority 2021, published 2024).

Target: T1, mTRPA1 (Mus musculus, UniProt Q8BLA8)
T1 construct: expressed in transfected cells
Test: IonWorks Barracuda (IWB) automated patch clamp, TRPA1 inhibitory activity
Assay type: cell-based
Conditions: HEK293 cells stably expressing mTRPA1, current induced by AITC, amplitude at +100 mV; read-out: IC50 (inhibition activity on TRPA1)
Method: In this example, the inhibitory activity of the compounds prepared in some examples of the present invention on transient receptor potential channel protein ankyrin 1 (TRPA1) was tested. Among them, compound of formula A (WO2010075353) was used as the positive control compound: […]
Test method using IonWorks Barracuda (IWB) automated patch clamp detection: HEK293 cells stably expressing mTRPA1 were placed in the T175 culture flask with DMEM medium containing 15 µg/mL Blasticidin S HCl, 200 µg/mL Hygromycin B and 10% FBS, and cultured in 37° C., 5% CO2 incubator. When the cell density reached about 80%, the culture medium was removed, washed once with phosphate buffered saline (PBS) without calcium and magnesium. 3 mL of Trypsin was added to digest for 2 min, 7 mL of culture solution was added to terminate the digestion. The cells were collected to 15 mL centrifuge tube and centrifuged at 800 rpm for 3 min. After the supernatant was removed, the cells were added to appropriate volume of extracellular fluid for re-suspending, and the cell density was controlled at 2-3×10^6/mL for use in IWB experiment. Extracellular fluid formulation (in mM): 140 NaCl, 5 KCl, 1 MgCl2, 10 HEPES, 0.5 EGTA, 10 Glucose (pH 7.4); intracellular fluid formulation (in mM): 140 CsCl, 10 HEPES, 5 EGTA, 0.1 CaCl2, 1 MgCl2 (pH 7.2). 28 mg/mL of amphotericin B was freshly prepared with DMSO on the day of experiment, and then final concentration of 0.1 mg/mL was prepared with intracellular fluid.
Population patch clamp (PPC) plate was used in IWB experiment. The entire detection process was automatically carried out by the instrument, that is, extracellular fluid was added into 384 wells of PPC plate, and after intracellular fluid was added under PPC plate (in plenum), 6 µL of cell fluid was added for sealing test, and finally the intracellular fluid in plenum was replaced with intracellular fluid containing amphotericin B to establish a whole-cell recording mode after perforating sealed cells. The sampling frequency for recording TPRA1 current was 10 kHz, the cells were clamped at 0 mV, the voltage stimulation command (channel protocol) was a ramp voltage from −100 mV to +100 mV for 300 ms. This voltage stimulation was applied every 10 s, mTRPA1 current was induced by 300 µM AITC.
Data recording and current amplitude measurement export were carried out by IWB software (version 2.5.3, Molecular Devices Corporation, Union City, CA). No statistics was recorded for holes with sealing impedance lower than 20 MΩ. The original current data was corrected by software for leak subtraction. TRPA1 current amplitude was measured at +100 mV. […] If IC50 value of HC030031 exceeded 3 times of the average IC50 value previously obtained on each plate, it would be re-tested. The dose-effect curve of compounds and IC50 were fitted and calculated by GraphPad Prism 5.02 (GraphPad Software, San Diego, CA).
Some compounds of the present invention were subjected to IC50 inhibition activity test using the IonWorks Barracuda (IWB) automated patch clamp detection method.

T1 sequence (Q8BLA8 whole entry): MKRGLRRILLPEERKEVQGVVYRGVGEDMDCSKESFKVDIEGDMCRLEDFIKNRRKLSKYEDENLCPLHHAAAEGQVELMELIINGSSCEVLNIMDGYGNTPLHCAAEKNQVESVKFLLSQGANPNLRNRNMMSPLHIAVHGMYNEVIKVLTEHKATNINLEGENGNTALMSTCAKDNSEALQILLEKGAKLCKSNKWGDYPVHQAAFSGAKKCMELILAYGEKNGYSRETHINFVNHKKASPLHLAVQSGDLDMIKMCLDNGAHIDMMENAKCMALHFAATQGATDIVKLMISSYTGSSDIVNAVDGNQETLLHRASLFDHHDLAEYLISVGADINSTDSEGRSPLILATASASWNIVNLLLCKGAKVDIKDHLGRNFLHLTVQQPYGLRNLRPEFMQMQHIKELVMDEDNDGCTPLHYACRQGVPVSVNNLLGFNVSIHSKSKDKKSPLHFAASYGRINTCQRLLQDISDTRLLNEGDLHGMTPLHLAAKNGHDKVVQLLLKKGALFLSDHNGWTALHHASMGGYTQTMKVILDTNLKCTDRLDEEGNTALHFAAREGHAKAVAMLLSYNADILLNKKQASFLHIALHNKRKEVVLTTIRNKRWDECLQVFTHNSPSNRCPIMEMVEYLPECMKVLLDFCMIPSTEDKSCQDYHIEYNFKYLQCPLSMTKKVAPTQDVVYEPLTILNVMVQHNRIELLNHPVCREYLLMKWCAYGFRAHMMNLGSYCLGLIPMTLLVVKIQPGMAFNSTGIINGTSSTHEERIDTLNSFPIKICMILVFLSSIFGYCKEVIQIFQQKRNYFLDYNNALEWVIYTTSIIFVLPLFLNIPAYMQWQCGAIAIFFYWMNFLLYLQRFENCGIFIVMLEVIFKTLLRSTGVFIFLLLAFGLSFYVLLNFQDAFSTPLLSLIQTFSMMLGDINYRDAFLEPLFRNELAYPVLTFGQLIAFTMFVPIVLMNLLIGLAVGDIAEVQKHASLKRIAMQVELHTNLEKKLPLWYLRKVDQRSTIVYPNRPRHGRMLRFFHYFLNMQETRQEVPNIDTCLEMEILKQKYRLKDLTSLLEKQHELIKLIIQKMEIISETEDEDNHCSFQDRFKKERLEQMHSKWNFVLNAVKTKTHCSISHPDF

Row | SMILES | IC50
1 | CNCc1ccc(-c2ccco2)c(NS(=O)(=O)c2ccc(F)cc2)c1 [IA-1, 4-Fluoro-N-(2-(furan-2-yl)-5-((methylamino)methyl)phenyl)benzenesulfonamide] | 1 to 5 µM
2 | CNCc1ccc(-c2cnn(C)c2)c(NS(=O)(=O)c2ccccc2)c1 [IA-56, N-(2-(1-methyl-1H-pyrazole-4-yl)-5-((methylamino)methyl)phenyl)benzenesulfonamide] | 10 to 20 µM
3 | CNCc1ccc(-c2c(C)nn(C)c2C)c(NS(=O)(=O)c2ccccc2)c1 [IA-57, N-(5-((methylamino)methyl)-2-(1,3,5-trimethyl-1H-pyrazole-4-yl)phenyl) benzenesulfonamide] | 20 to 50 µM
4 | CNCc1ccc(-c2c(C)n[nH]c2C)c(NS(=O)(=O)c2ccccc2)c1 [IA-58, N-(2-(3,5-dimethyl-1H-pyrazole-4-yl)-5-((methylamino)methyl)phenyl)benzenesulfonamide] | 50 to 100 µM
5 | CNCc1ccc(-c2ncc(C)s2)c(NS(=O)(=O)c2ccccc2)c1 [IA-59, N-(5-((methylamino)methyl)-2-(5-methylthiazol-2-yl)phenyl)benzenesulfonamide] | 5 to 10 µM
6 | CNCc1ccc(-c2cnc[nH]2)c(NS(=O)(=O)c2ccccc2)c1 [IA-61, N-(2-(1H-imidazol-5-yl)-5-((methylamino)methyl)phenyl)benzenesulfonamide] | 10 to 20 µM
7 | O=S(=O)(Nc1cc(CNCC(F)(F)F)ccc1-c1ccco1)c1ccccc1 [IA-62] | 50 to 100 µM
8 | O=S(=O)(Nc1cc(/C=N\O)ccc1-c1ccco1)c1ccccc1 [IC-1, N-(2-(furan-2-yl)-5-((oximido)methyl)phenyl)benzenesulfonamide] | 20 to 50 µM
9 | NCc1ccc(-c2ccco2)c(NS(=O)(=O)c2ccc(F)cc2)c1 [ID-2, N-(5-(aminomethyl)-2-(furan-2-yl)phenyl)-4-fluorobenzenesulfonamide] | 1 to 5 µM
10 | NCc1ccc(NS(=O)(=O)c2ccccc2)c(-c2ccco2)c1 [ID-4, N-(4-(aminomethyl)-2-(furan-2-yl)phenyl)benzenesulfonamide] | 1 to 5 µM
11 | NCc1ccc(NS(=O)(=O)c2ccc(F)cc2)c(-c2ccco2)c1 [ID-6, N-(4-(aminomethyl)-2-(furan-2-yl)phenyl)-4-fluorobenzenesulfonamide] | 1 to 5 µM
12 | NCc1ccc(-c2cc[nH]n2)c(NS(=O)(=O)c2ccsc2)c1 [ID-8, N-(5-(aminomethyl)-2-(1H-pyrazole-3-yl)phenyl)thiophene-3-sulfonamide] | 1 to 5 µM
13 | CC(=O)NCc1ccc(NS(=O)(=O)c2ccsc2)c(-c2ccco2)c1 [IE, N-(3-(furan-2-yl)-4-(thiophene-3-sulfonamide)benzyl)acetamide] | 20 to 50 µM
14 | O=S(=O)(Nc1cc(CO)ccc1-c1ccco1)c1ccccc1 [IH, N-(2-(furan-2-yl)-5-(hydroxymethyl)phenyl)benzenesulfonamide] | 20 to 50 µM
15 | CN(C)Cc1ccc(NS(=O)(=O)c2ccsc2)c(-c2ccco2)c1 [IJ-1, N-(4-((dimethylamino)methyl)-2-(furan-2-yl)phenyl)thiophene-3-sulfonamide] | 1 to 5 µM
16 | CNCc1ccc(-n2nccn2)c(NS(=O)(=O)c2ccccc2)c1 [IQ-3, N-(5-((methylamino)methyl)-2-(2H-1,2,3-triazol-2-yl)phenyl)benzenesulfonamide] | 1 to 5 µM
17 | CNCc1ccc(-n2ccnn2)c(NS(=O)(=O)c2ccccc2)c1 [IQ-4, N-(5-((methylamino)methyl)-2-(1H-1,2,3-triazol-1-yl)phenyl)benzenesulfonamide] | 5 to 10 µM
18 | CNCCc1ccc(NS(=O)(=O)c2ccsc2)c(-c2ccco2)c1 [IS, N-(2-(furan-2-yl)-4-(2-(methylamino)ethyl)phenyl)thiophene-3-sulfonamide] | 1 to 5 µM
19 | CC(N)c1ccc(N(C)S(=O)(=O)c2ccccc2)c(-c2ccco2)c1 (centres unmarked) [IU-1] | 1 to 5 µM
20 | CC(N)c1ccc(NS(=O)(=O)c2ccccc2)c(-c2ccco2)c1 (centres unmarked) [IU-2, N-(4-(1-aminoethyl)-2-(furan-2-yl)phenyl)benzenesulfonamide] | 1 to 5 µM
21 | CCC(N)c1ccc(NS(=O)(=O)c2ccccc2)c(-c2ccco2)c1 (centres unmarked) [IU-3, N-(4-(1-aminopropyl)-2-(furan-2-yl)phenyl)benzenesulfonamide] | < 1 µM
22 | CCCC(N)c1ccc(NS(=O)(=O)c2ccccc2)c(-c2ccco2)c1 (centres unmarked) [IU-4, N-(4-(1-aminobutyl)-2-(furan-2-yl)phenyl)benzenesulfonamide] | < 1 µM
23 | CC(C)C(N)c1ccc(NS(=O)(=O)c2ccccc2)c(-c2ccco2)c1 (centres unmarked) [IU-5, N-(4-(1-amino-2-methylpropyl)-2-(furan-2-yl)phenyl)benzenesulfonamide] | < 1 µM
24 | NC(c1ccc(NS(=O)(=O)c2ccccc2)c(-c2ccco2)c1)C1CC1 (centres unmarked) [IU-6, N-(4-(amino(cyclopropyl)methyl)-2-(furan-2-yl)phenyl)benzenesulfonamide] | < 1 µM
25 | NC(c1ccccc1)c1ccc(NS(=O)(=O)c2ccccc2)c(-c2ccco2)c1 (centres unmarked) [IU-7, N-(4-(amino(phenyl)methyl)-2-(furan-2-yl)phenyl)benzenesulfonamide] | 1 to 5 µM
26 | NC(Cc1ccccc1)c1ccc(NS(=O)(=O)c2ccccc2)c(-c2ccco2)c1 (centres unmarked) [IU-8, N-(4-(1-amino-2-phenylethyl)-2-(furan-2-yl)phenyl)benzenesulfonamide] | 10 to 20 µM
27 | CC(N)c1ccc(-c2ccco2)c(NS(=O)(=O)c2ccccc2)c1 (centres unmarked) [IU-9, N-(5-(1-aminoethyl)-2-(furan-2-yl)phenyl)benzenesulfonamide] | < 1 µM
28 | CNC(C)c1ccc(NS(=O)(=O)c2ccccc2)c(-c2ccco2)c1 (centres unmarked) [IV-1, N-(2-(furan-2-yl)-4-(1-(methylamino)ethyl)phenyl)benzenesulfonamide] | 1 to 5 µM
29 | CNC(C)c1ccc(-c2ccco2)c(NS(=O)(=O)c2ccccc2)c1 (centres unmarked) [IV-2, N-(2-(furan-2-yl)-5-(1-(methylamino)ethyl)phenyl)benzenesulfonamide] | 1 to 5 µM
30 | O=S(=O)(Nc1cc(C2CCCN2)ccc1-c1ccco1)c1ccccc1 (centres unmarked) [IW, N-(2-(furan-2-yl)-5-(pyrrolidin-2-yl)phenyl)benzenesulfonamide] | 1 to 5 µM

Target: T2, chemokine receptor CCR9 (Homo sapiens, UniProt P51686)
T2 construct: expressed in transfected cells
T2 sequence (P51686 1-369): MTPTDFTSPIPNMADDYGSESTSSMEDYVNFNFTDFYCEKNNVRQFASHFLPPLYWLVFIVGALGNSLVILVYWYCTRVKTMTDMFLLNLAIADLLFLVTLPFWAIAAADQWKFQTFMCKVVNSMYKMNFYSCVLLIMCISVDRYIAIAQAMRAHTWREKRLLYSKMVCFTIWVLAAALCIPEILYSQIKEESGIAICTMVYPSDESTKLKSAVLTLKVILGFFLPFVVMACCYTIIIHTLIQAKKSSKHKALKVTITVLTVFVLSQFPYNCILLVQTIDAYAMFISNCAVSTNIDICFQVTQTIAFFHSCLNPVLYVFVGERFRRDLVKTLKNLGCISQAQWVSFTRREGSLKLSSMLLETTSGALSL
Test: CCR9 antagonistic activity, calcium flow (Fluo-4, FlexStation), CCL25 agonist
Assay type: cell-based
Conditions: 100 μM; antagonistic mode, CCL25 150 nM; read-out: Inhibition rate (%) (100 μM)
Excerpt: 2.1 Main reagents: DMEM culture medium (GIBCO); dimethyl sulfoxide (Sigma); FLUO-4, AM (Invitrogen) 2.2 Main instrument: Flexstation-3 (Molecular Devices) The test concentration gradient of the compound and replicates were set according to the requirement of testing ICSO. All test substances with 8 concentrations were set, with 3 replicates for each concentration. By establishing a cell line that cotransformed the receptor and G16, the receptor being activated can induce the activation of Gα16 protein, thereby activating phospholipase C (PLC) to produce IP3 and DAG. IP3 can bind to the IP3 receptor on the intracellular endoplasmic reticulum and mitochondria, leading to the release of intracellular calcium. Therefore, measuring changes in intracellular calcium can serve as a method for detecting the activation status of target receptor. Fluo-4/AM is a calcium fluorescent probe indicator used to measure calcium ion, as a non-polar lipophilic compound, under the action of cell lipase after entering cells, the AM group dissociates and releases Fluo-4; since Fluo-4 is a polar molecule, it is not easy to pass through lipid bilayers, allowing it to remain in the cell for a long time. Ultimately, the level of G protein activation can be reflected by measuring the excited fluorescence intensity. […] Cells stably expressing the target receptor/Ga16 were planted on a 96 well plate and cultured overnight. 2. The culture solution was removed from the well planted cells, then 40 μL/well of freshly prepared dye was added. The mixture was incubated at a constant temperature in a 37° C. incubator for 40 minutes. 3. The drug to be tested was diluted with calcium buffer and mixed well. 4. The dye was absorbed and discarded. After washed once with freshly prepared calcium buffer, 50 μL of calcium buffer that dissolved the drug to be tested was added for replacement. 5. The FlexStation II instrument was used for detection. Starting from the 15th second, […] dissolved with known agonist was automatically added by the instrument, and finally the fluorescence value at 525 nm was readed. The following formula was used to calculate the cell response rate (% Response) for each sample under each concentration. […] IC50 value was calculated using GraphPad Prism.

Row | SMILES | inhibition at 100 µM
31 | CNCc1ccc(-c2ccco2)c(NS(=O)(=O)c2ccc(F)cc2)c1 [IA-1, 4-Fluoro-N-(2-(furan-2-yl)-5-((methylamino)methyl)phenyl)benzenesulfonamide] | 14%

Same assay, conditions: antagonistic mode, CCL25 150 nM

Row | SMILES | IC50
32 | CNCc1ccc(-c2ccco2)c(NS(=O)(=O)c2ccc(F)cc2)c1 [IA-1, 4-Fluoro-N-(2-(furan-2-yl)-5-((methylamino)methyl)phenyl)benzenesulfonamide] | > 100 µM
